According to patent publication US20250034139A1, “AMINE COMPOUNDS HAVING ANTI-INFLAMMATORY, ANTIFUNGAL, ANTIPARASITIC, AND ANTICANCER ACTIVITY” (PHARMA CINQ, LLC, priority 2013, published 2025):

system: PC3 human prostate cancer cells; assay: Example S: in vitro anticancer screen, PC-3 cells, Wst1; assay type: cell-based; settings: Homo sapiens, PC-3; 2.5 μM, approximately 20 hours, Wst1; read-out: PC-3, percent of cancer cell survival relative to vehicle treated cells
In short: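 Values give percent survival relative to vehicle, read by Wst1 absorbance (450/630 nm) after 2 h dye incubation, in triplicate. Cells were seeded at 2×10^4/well and treated about 20 h with compound at 0.4, 0.5 or 2.5 μM, depending on compound.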

Compound	viability at 2.5 µM [%]
c1ccc(COc2cccc(Nc3ccnc4ccccc34)c2)cc1 [DM, N-[3-(Benzyloxy)phenyl]quinolin-4-amine]	45.6
CCCCCCOc1cccc(Nc2ccnc3ccccc23)c1 [DN, N-[3-(Hexyloxy)phenyl]quinolin-4-amine]	31.7
c1ccc(COc2ccccc2Nc2ccnc3ccccc23)cc1 [DO, N-[2-(Benzyloxy)phenyl]quinolin-4-amine]	59.2
CCCCCCOc1ccccc1Nc1ccnc2ccccc12 [DP, N-[2-(Hexyloxy)phenyl]quinolin-4-amine]	37.5
c1ccc(CCNc2ccnc3ccccc23)cc1 [DR, N-Phenethylquinolin-4-amine]	31.5

same assay, conditions: Homo sapiens, PC-3; 5 μM, approximately 20 hours, Wst1; read-out: PC-3, percent of cancer cell survival relative to vehicle treated cells

Compound	viability at 5 µM [%]
O=C(NCCCCCCCCNc1ccnc2ccccc12)c1ccccc1 [DY, N-[8-(Quinolin-4-ylamino)octyl]benzamide]	16.1

system: 4T1 murine breast cancer cells; assay: Example S: in vitro anticancer screen, 4T1 cells, Wst1; assay type: cell-based, mouse; settings: Mus musculus, 4T1, 18 h, 1 μM, 18 hr, Wst1; read-out: 4T1 1 μM, percent of cancer cell survival relative to vehicle treated cells
In short: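 Read-out is Wst1 absorbance (450 nm, reference 630 nm) after roughly 2 hr dye incubation, giving percent cell survival versus vehicle. Before that, compounds at 1 μM or 5 μM were applied for 18 hr to 4T1 cells plated at 1×10^4 per well.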

Compound	viability at 1 µM [%]
c1ccc(COc2cccc(Nc3ccnc4ccccc34)c2)cc1 [DM, N-[3-(Benzyloxy)phenyl]quinolin-4-amine]	128
CCCCCCOc1cccc(Nc2ccnc3ccccc23)c1 [DN, N-[3-(Hexyloxy)phenyl]quinolin-4-amine]	104
c1ccc(COc2ccccc2Nc2ccnc3ccccc23)cc1 [DO, N-[2-(Benzyloxy)phenyl]quinolin-4-amine]	116
CCCCCCOc1ccccc1Nc1ccnc2ccccc12 [DP, N-[2-(Hexyloxy)phenyl]quinolin-4-amine]	72.5
c1ccc(CCNc2ccnc3ccccc23)cc1 [DR, N-Phenethylquinolin-4-amine]	77.9
O=C(NCCCCCCCCNc1ccnc2ccccc12)c1ccccc1 [DY, N-[8-(Quinolin-4-ylamino)octyl]benzamide]	88.9

same assay, conditions: Mus musculus, 4T1, 18 h, 5 μM, 18 hr, Wst1; read-out: 4T1 5 μM, percent of cancer cell survival relative to vehicle treated cells

Compound	viability at 5 µM [%]
c1ccc(COc2cccc(Nc3ccnc4ccccc34)c2)cc1 [DM, N-[3-(Benzyloxy)phenyl]quinolin-4-amine]	47.8
CCCCCCOc1cccc(Nc2ccnc3ccccc23)c1 [DN, N-[3-(Hexyloxy)phenyl]quinolin-4-amine]	56.7
c1ccc(COc2ccccc2Nc2ccnc3ccccc23)cc1 [DO, N-[2-(Benzyloxy)phenyl]quinolin-4-amine]	35.2
CCCCCCOc1ccccc1Nc1ccnc2ccccc12 [DP, N-[2-(Hexyloxy)phenyl]quinolin-4-amine]	25.4
c1ccc(CCNc2ccnc3ccccc23)cc1 [DR, N-Phenethylquinolin-4-amine]	27.2
O=C(NCCCCCCCCNc1ccnc2ccccc12)c1ccccc1 [DY, N-[8-(Quinolin-4-ylamino)octyl]benzamide]	60.5

system: THP-1 cells; assay: Example D: LPS-triggered THP-1 cell death assay, acute/5-hour and chronic/48-hour; assay type: cell-based, Human; settings: 10 ng/ml LPS, 0.1 μM test compound, 48 hours
Method: Compounds of the invention were tested at 0.1 μM versus AC in the LPS-triggered THP-1 cell death assay. Both acute/5-hour and chronic/48-hour phases of cell death were assessed. Compounds were screened in batches with DMSO as the negative control and AC as the high activity control.

Compound	Viable cell percent change, Chronic/48-hour, Mean [%]
c1ccc(COc2cccc(Nc3ccnc4ccccc34)c2)cc1 [DM, N-[3-(Benzyloxy)phenyl]quinolin-4-amine]	34.67
CCCCCCOc1cccc(Nc2ccnc3ccccc23)c1 [DN, N-[3-(Hexyloxy)phenyl]quinolin-4-amine]	77.15
c1ccc(COc2ccccc2Nc2ccnc3ccccc23)cc1 [DO, N-[2-(Benzyloxy)phenyl]quinolin-4-amine]	36.46
CCCCCCOc1ccccc1Nc1ccnc2ccccc12 [DP, N-[2-(Hexyloxy)phenyl]quinolin-4-amine]	42.36
c1ccc(CCNc2ccnc3ccccc23)cc1 [DR, N-Phenethylquinolin-4-amine]	27.12
O=C(NCCCCCCCCNc1ccnc2ccccc12)c1ccccc1 [DY, N-[8-(Quinolin-4-ylamino)octyl]benzamide]	45.25

system: PC-3 prostate cancer cells; assay: Example T: sensitisation of PC-3 cells to doxorubicin, oxaliplatin, paclitaxel or vincristine, Wst1; assay type: cell-based, human; settings: Homo sapiens; PC-3 cells; compound 2.5 μM alone; 72 hours; Wst1; vehicle = 100; read-out: No Chemo: percent cell survival

Compound	viability at 2.5 µM [%]
c1ccc(COc2cccc(Nc3ccnc4ccccc34)c2)cc1 [DM, N-[3-(Benzyloxy)phenyl]quinolin-4-amine]	45.6
CCCCCCOc1cccc(Nc2ccnc3ccccc23)c1 [DN, N-[3-(Hexyloxy)phenyl]quinolin-4-amine]	31.7
c1ccc(COc2ccccc2Nc2ccnc3ccccc23)cc1 [DO, N-[2-(Benzyloxy)phenyl]quinolin-4-amine]	59.2
CCCCCCOc1ccccc1Nc1ccnc2ccccc12 [DP, N-[2-(Hexyloxy)phenyl]quinolin-4-amine]	37.5
c1ccc(CCNc2ccnc3ccccc23)cc1 [DR, N-Phenethylquinolin-4-amine]	31.5

same assay, conditions: Homo sapiens; PC-3 cells; compound 5 μM alone; 72 hours; Wst1; vehicle = 100; read-out: No Chemo: percent cell survival

Compound	viability at 5 µM [%]
O=C(NCCCCCCCCNc1ccnc2ccccc12)c1ccccc1 [DY, N-[8-(Quinolin-4-ylamino)octyl]benzamide]	16.1

same assay, conditions: PC-3 cells; compound 2.5 μM + doxorubicin 3.5 μM; 72 hours; chemotherapy agent alone normalized to 100%

Compound	Doxorubicin 3.5 μM: percent cell survival [%]
c1ccc(COc2cccc(Nc3ccnc4ccccc34)c2)cc1 [DM, N-[3-(Benzyloxy)phenyl]quinolin-4-amine]	79.2
CCCCCCOc1cccc(Nc2ccnc3ccccc23)c1 [DN, N-[3-(Hexyloxy)phenyl]quinolin-4-amine]	64.1
c1ccc(COc2ccccc2Nc2ccnc3ccccc23)cc1 [DO, N-[2-(Benzyloxy)phenyl]quinolin-4-amine]	79.9
CCCCCCOc1ccccc1Nc1ccnc2ccccc12 [DP, N-[2-(Hexyloxy)phenyl]quinolin-4-amine]	65.3
c1ccc(CCNc2ccnc3ccccc23)cc1 [DR, N-Phenethylquinolin-4-amine]	59.9

same assay, conditions: PC-3 cells; compound 2.5 μM + oxaliplatin 100 μM; 72 hours; chemotherapy agent alone normalized to 100%

Compound	Oxaliplatin 100 μM: percent cell survival [%]
c1ccc(COc2cccc(Nc3ccnc4ccccc34)c2)cc1 [DM, N-[3-(Benzyloxy)phenyl]quinolin-4-amine]	91.1
CCCCCCOc1cccc(Nc2ccnc3ccccc23)c1 [DN, N-[3-(Hexyloxy)phenyl]quinolin-4-amine]	78
c1ccc(COc2ccccc2Nc2ccnc3ccccc23)cc1 [DO, N-[2-(Benzyloxy)phenyl]quinolin-4-amine]	89.9
CCCCCCOc1ccccc1Nc1ccnc2ccccc12 [DP, N-[2-(Hexyloxy)phenyl]quinolin-4-amine]	77.4
c1ccc(CCNc2ccnc3ccccc23)cc1 [DR, N-Phenethylquinolin-4-amine]	68.7

same assay, conditions: PC-3 cells; compound 2.5 μM + paclitaxel 50 μM; 72 hours; chemotherapy agent alone normalized to 100%

Compound	Paclitaxel 50 μM: percent cell survival [%]
c1ccc(COc2cccc(Nc3ccnc4ccccc34)c2)cc1 [DM, N-[3-(Benzyloxy)phenyl]quinolin-4-amine]	105.4
CCCCCCOc1cccc(Nc2ccnc3ccccc23)c1 [DN, N-[3-(Hexyloxy)phenyl]quinolin-4-amine]	64.7
c1ccc(COc2ccccc2Nc2ccnc3ccccc23)cc1 [DO, N-[2-(Benzyloxy)phenyl]quinolin-4-amine]	93.4
CCCCCCOc1ccccc1Nc1ccnc2ccccc12 [DP, N-[2-(Hexyloxy)phenyl]quinolin-4-amine]	64.6
c1ccc(CCNc2ccnc3ccccc23)cc1 [DR, N-Phenethylquinolin-4-amine]	49.2

same assay, conditions: PC-3 cells; compound 2.5 μM + vincristine 100 nM; 72 hours; chemotherapy agent alone normalized to 100%

Compound	Vincristine 100 nM: percent cell survival [%]
c1ccc(COc2cccc(Nc3ccnc4ccccc34)c2)cc1 [DM, N-[3-(Benzyloxy)phenyl]quinolin-4-amine]	92.1
CCCCCCOc1cccc(Nc2ccnc3ccccc23)c1 [DN, N-[3-(Hexyloxy)phenyl]quinolin-4-amine]	72.3
c1ccc(COc2ccccc2Nc2ccnc3ccccc23)cc1 [DO, N-[2-(Benzyloxy)phenyl]quinolin-4-amine]	90.1
CCCCCCOc1ccccc1Nc1ccnc2ccccc12 [DP, N-[2-(Hexyloxy)phenyl]quinolin-4-amine]	74.1
c1ccc(CCNc2ccnc3ccccc23)cc1 [DR, N-Phenethylquinolin-4-amine]	35.5

same assay, conditions: PC-3 cells; compound 5 μM + doxorubicin 3.5 μM; 72 hours; chemotherapy agent alone normalized to 100%

Compound	Doxorubicin 3.5 μM: percent cell survival [%]
O=C(NCCCCCCCCNc1ccnc2ccccc12)c1ccccc1 [DY, N-[8-(Quinolin-4-ylamino)octyl]benzamide]	21.2

same assay, conditions: PC-3 cells; compound 5 μM + oxaliplatin 100 μM; 72 hours; chemotherapy agent alone normalized to 100%

Compound	Oxaliplatin 100 μM: percent cell survival [%]
O=C(NCCCCCCCCNc1ccnc2ccccc12)c1ccccc1 [DY, N-[8-(Quinolin-4-ylamino)octyl]benzamide]	20.6

same assay, conditions: PC-3 cells; compound 5 μM + paclitaxel 50 μM; 72 hours; chemotherapy agent alone normalized to 100%

Compound	Paclitaxel 50 μM: percent cell survival [%]
O=C(NCCCCCCCCNc1ccnc2ccccc12)c1ccccc1 [DY, N-[8-(Quinolin-4-ylamino)octyl]benzamide]	23.3

same assay, conditions: PC-3 cells; compound 5 μM + vincristine 100 nM; 72 hours; chemotherapy agent alone normalized to 100%

Compound	Vincristine 100 nM: percent cell survival [%]
O=C(NCCCCCCCCNc1ccnc2ccccc12)c1ccccc1 [DY, N-[8-(Quinolin-4-ylamino)octyl]benzamide]	18.3
